Data: patent US10597388B2, “Pyridazinone herbicides” (FMC CORPORATION, priority 2014, dated 2020)
Where two headings read alike, the source gives them in different places.

Assays:
[1] = test system: foxtail, giant (giant foxtail, Setaria faberii); assay: Test A greenhouse herbicide test, pre- and postemergence; type: in vivo; details: Setaria faberi, 240 h, 1000 g ai/ha, 0 to 100 scale
Method in brief: (§1)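 Seeds in loam–sand blend received a preemergence directed soil spray; plants at 2–10 cm, one- to two-leaf stage, received postemergence sprays. Compounds in a non-phytotoxic solvent with surfactant. After about 10 d in a greenhouse, injury rated visually versus untreated controls on a 0–100 scale (100 = complete control).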

[2] = test system: crabgrass, large (large crabgrass, Digitaria sanguinalis); assay: as above; type: in vivo; details: 240 h, 1000 g ai/ha, 0 to 100 scale
Method in brief: as §1

corn (Zea mays) = assay: as above; type: in vivo; details: Zea mays, 240 h, 1000 g ai/ha, 0 to 100 scale
Method in brief: as §1

[3] = test system: velvetleaf (Abutilon theophrasti); assay: as above; type: in vivo; details: 240 h, 1000 g ai/ha, 0 to 100 scale
Method in brief: as §1

[4] = test system: barnyardgrass (Echinochloa crus-galli); assay: as above; type: in vivo; details: Echinochloa crus-galli, 240 h, 1000 g ai/ha, 0 to 100 scale
Method in brief: as §1

[5] = test system: pigweed (Amaranthus retroflexus); assay: as above; type: in vivo; details: Amaranthus retroflexus, 240 h, 1000 g ai/ha, 0 to 100 scale
Method in brief: as §1

[6] = test system: wheat (Triticum aestivum); assay: as above; type: in vivo; details: Triticum aestivum, 240 h, 1000 g ai/ha, 0 to 100 scale
Method in brief: as §1

[7] = test system: momingglory (Ipomoea spp.); assay: as above; type: in vivo; details: 240 h, 1000 g ai/ha, 0 to 100 scale
Method in brief: as §1

[8] = test system: ducksalad (Heteranthera limosa); assay: Test B flooded paddy test; type: in vivo; details: Heteranthera limosa, 360 h; 250 g ai/ha, Flood; visual rating on scale of 0 to 100 where 0 is no effect and 100 is complete control; 13 to 15 d after treatment; read-out: Plant response rating, Ducksalad
Method in brief: (§2)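 Plants grown to the 2-leaf stage. At treatment, pots were flooded to 3 cm above the soil, compound was applied directly to the paddy water, and that depth was held throughout. After 13 to 15 d in the greenhouse, response was rated visually against controls on a 0 (no effect) to 100 (complete control) scale.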

rice (Oryza sativa) = assay: Test B flooded paddy test; type: in vivo; details: Oryza sativa, 360 h; 250 g ai/ha, Flood; visual rating on scale of 0 to 100 where 0 is no effect and 100 is complete control; 13 to 15 d after treatment; read-out: Plant response rating, Rice
Method in brief: as §2

[9] = test system: sedge, umbrella (small-flower umbrella sedge, Cyperus difformis); assay: Test B flooded paddy test; type: in vivo; details: Cyperus difformis, 360 h; 250 g ai/ha, Flood; visual rating on scale of 0 to 100 where 0 is no effect and 100 is complete control; 13 to 15 d after treatment; read-out: Plant response rating, Sedge, Umbrella
Method in brief: as §2

[10] = test system: barnyardgrass (Echinochloa crus-galli); assay: Test B flooded paddy test; type: in vivo; details: Echinochloa crus-galli, 360 h; 250 g ai/ha, Flood; visual rating on scale of 0 to 100 where 0 is no effect and 100 is complete control; 13 to 15 d after treatment; read-out: Plant response rating, Barnyardgrass
Method in brief: as §2

**Q.** Which melting point does the source give for `Cc1cc(C)c2c(-c3c(O)c(C)nn(C)c3=O)c(C)sc2c1` [Compound 3, 5-hydroxy-2,6-dimethyl-4-(2,4,6-trimethylbenzo[b]thien-3-yl)-3(2H)-pyridazinone] here?
**A.** 224 to 227 °C

**Q.** What about the pest or weed control at 1000 g/ha ([1]; post-emergence, Postemergence, 0 is no effect, 100 is complete control, read-out: Foxtail, Giant plant response rating) of the same compound?
**A.** 10%

**Q.** And the pest or weed control at 1000 g/ha ([1]; pre-emergence, Preemergence, 0 no effect, 100 complete control, read-out: Plant response rating, Foxtail, Giant)?
**A.** 60%

**Q.** And the pest or weed control at 1000 g/ha ([2]; post-emergence, Postemergence, 0 is no effect, 100 is complete control, read-out: Crabgrass, Large plant response rating)?
**A.** 10%

**Q.** What about the pest or weed control at 1000 g/ha ([2]; pre-emergence, Preemergence, 0 no effect, 100 complete control, read-out: Plant response rating, Crabgrass, Large) of the same compound?
**A.** 80%

**Q.** What about the plant injury at 1000 g/ha (corn (Zea mays); post-emergence, Postemergence, 0 is no effect, 100 is complete control, read-out: Corn plant response rating) of the same compound?
**A.** 0%

**Q.** And the Corn plant response rating (crop injury, 0 = no effect, 100 = complete kill) at 1000 g/ha (corn (Zea mays); pre-emergence, Preemergence, 0 no effect, 100 complete control)?
**A.** 0%

**Q.** What about the pest or weed control at 1000 g/ha ([3]; post-emergence, Postemergence, 0 is no effect, 100 is complete control, read-out: Velvetleaf plant response rating) of the same compound?
**A.** 70%

**Q.** And the pest or weed control at 1000 g/ha ([3]; pre-emergence, Preemergence, 0 no effect, 100 complete control, read-out: Plant response rating, Velvetleaf)?
**A.** 70%

**Q.** What about the pest or weed control at 1000 g/ha ([4]; post-emergence, Postemergence, 0 is no effect, 100 is complete control, read-out: Barnyardgrass plant response rating) of the same compound?
**A.** 50%

**Q.** And the pest or weed control at 1000 g/ha ([4]; pre-emergence, Preemergence, 0 no effect, 100 complete control, read-out: Plant response rating, Barnyardgrass)?
**A.** 80%

**Q.** And the pest or weed control at 1000 g/ha ([5]; post-emergence, Postemergence, 0 is no effect, 100 is complete control, read-out: Pigweed plant response rating)?
**A.** 0%

**Q.** And the pest or weed control at 1000 g/ha ([5]; pre-emergence, Preemergence, 0 no effect, 100 complete control, read-out: Plant response rating, Pigweed)?
**A.** 0%

**Q.** What about the plant injury at 1000 g/ha ([6]; post-emergence, Postemergence, 0 is no effect, 100 is complete control, read-out: Wheat plant response rating) of the same compound?
**A.** 0%

**Q.** And the plant injury at 1000 g/ha ([6]; pre-emergence, Preemergence, 0 no effect, 100 complete control, read-out: Plant response rating, Wheat)?
**A.** 0%

**Q.** And the pest or weed control at 1000 g/ha ([7]; post-emergence, Postemergence, 0 is no effect, 100 is complete control, read-out: Morningglory plant response rating)?
**A.** 90%

**Q.** And the pest or weed control at 1000 g/ha ([7]; pre-emergence, Preemergence, 0 no effect, 100 complete control, read-out: Plant response rating, Morningglory)?
**A.** 80%

**Q.** And the pest or weed control at 250 g/ha [8]?
**A.** 20%

**Q.** What about the plant injury at 250 g/ha (rice (Oryza sativa)) of the same compound?
**A.** 0%

**Q.** What about the pest or weed control at 250 g/ha [9] of the same compound?
**A.** 0%

**Q.** What about the pest or weed control at 250 g/ha [10] of the same compound?
**A.** 0%
